Data: patent US8354102B2, “Antibodies directed to mGluR7” (Hoffmann-La Roche Inc., priority 2007, dated 2013)
In the oligonucleotide strings, read from the 5' end, every base follows the letter of its sugar. An asterisk marks phosphorothioate; unmarked linkages are phosphodiester. Other units and linkages are bracketed, terminal groups are in braces. A string of capitals states the bases alone. [C6SSC6] = C6-disulfide-C6 linker; {Cy5} = Cy5 fluorescent dye label; d = 2'-deoxy (DNA); m = 2'-O-methyl; r = 2'-OH (RNA)

Legend:
[1] = system: p44/42 MAPK (Thr202/Tyr204) in CHO cells expressing mGlu7 receptors; assay: p44/42 MAPK activities (PathScan Sandwich ELISA) in CHO cells expressing mGlu7 receptors; assay type: cell-based, rat; details: 5 minutes stimulation; FIG. 8C
Procedure: Cells stably expressing the rat mGluR7 receptor are seeded in growth medium in 6 well plates. The next day, medium is replaced with 2 ml starvation medium (Opti-MEM with 0.1% fatty acid free BSA). The following day cells are stimulated with compound in 150 μl starvation medium for the indicated times at 37° C., otherwise cells are stimulated for 5 minutes. Cells are washed with ice cold PBS and lyzed in 150 ul buffer containing 1 mM β-glycerophosphate 1 mM EDTA, 1 mM EGTA, 1 μg/ml leupeptin, 150 mM sodium chloride, 2.5 mM sodium phosphate, 20 mM Tris-Cl, 1 mM PMSF and 1% Triton X-100, scraped off and sonicated on ice. After centrifugation the supernatant is analyzed for p44/42 MAPK activities using the PathScan™ Sandwich ELISA kit according to instructions of the manufacturer. Absorbance ([…]) is read using the EnVision reader (Perkin Elmer).

rat mGlu7a receptor = biological target: T1, rat mGlu7a receptor (Rattus norvegicus, UniProt P35400); assay: CRE-luciferase reporter gene assay in rat mGlu7a transfected CHO clones; assay type: cell-based; details: 1 μM forskolin and 0.5 mM L-AP4, 4 h; responses across clones ranged from no depression to this maximum
T1 construct: expressed in transfected cells
Source text: The cDNA of the rat mGlu7a receptor splice variant (Genbank: D16817) was inserted into a eukaryotic expression vector pcDNA3.1(+). This plasmid was transfected into CHO cells deficient in dihydrofolate reductase activity (CHO-dhfr^−) harboring a luciferase reporter gene under the control of 5 cAMP-responsive elements (CRE) using Lipofectamine plus according to the instruction of the manufacturer. Clones were isolated through limited dilutions and identified by activities in the reporter gene assay. Cells were stimulated with 1 μM forskolin and 0.5 mM L-AP4 in the assay buffer. After 4 h the supernatant was exchanged with lysis buffer and the luciferase activity measured. Responses ranged from no depression to about 83% depression. A clonal cell line displaying the greatest inhibition of forskolin-mediated luciferase activity was selected and identified as giving consistently good responses for up to at least 20 passages.

rat mGluR7 receptor = biological target: T2, rat mGluR7 receptor (Rattus norvegicus, UniProt P35400); assay: Antibody mediated cellular uptake of siRNA-Cy5 in mGluR7 expressing CHO cells; assay type: cell-based; details: mix of 67 nM primary antibody and 20 nM siRNA-Cy5, 37° C., 40 minutes; FIG. 5 E-H
T2 construct: expressed in transfected cells
Procedure: The experiment was carried out according to the protocol, with the following modifications: The cells were incubated with 67 nm primary antibody conjugated to siRNA-Cy5 (Molar ratio 1 to 0.3) or a mix of 67 nM primary antibody and 20 nM siRNA-Cy5 at 37° C. for 40 minutes. The secondary antibody used for detection of cell surface primary immunostaining was labelled with Alexa488 and the secondary antibody used for detection of whole cell primary immunostaining was labelled with Alexa532. The Trueblue and hoechst staining of the cytoplasm was replaced with a staining step following the formaldehyde fixation, where the samples where incubated with 3 uM Hoechst and 2 μg/ml CellmaskBlue in PBS for 15 minutes at roomtemperature followed by a second fixation with 4% formaldehyde for 15 minutes at roomtemperature.
Each row contains images acquired in parallel of the same field of view in the well. Panel A-D is with primary antibody labelled with siRNA-Cy5, panel E-H with primary antibody mixed with siRNA-Cy5.

T1 sequence (P35400 35-915): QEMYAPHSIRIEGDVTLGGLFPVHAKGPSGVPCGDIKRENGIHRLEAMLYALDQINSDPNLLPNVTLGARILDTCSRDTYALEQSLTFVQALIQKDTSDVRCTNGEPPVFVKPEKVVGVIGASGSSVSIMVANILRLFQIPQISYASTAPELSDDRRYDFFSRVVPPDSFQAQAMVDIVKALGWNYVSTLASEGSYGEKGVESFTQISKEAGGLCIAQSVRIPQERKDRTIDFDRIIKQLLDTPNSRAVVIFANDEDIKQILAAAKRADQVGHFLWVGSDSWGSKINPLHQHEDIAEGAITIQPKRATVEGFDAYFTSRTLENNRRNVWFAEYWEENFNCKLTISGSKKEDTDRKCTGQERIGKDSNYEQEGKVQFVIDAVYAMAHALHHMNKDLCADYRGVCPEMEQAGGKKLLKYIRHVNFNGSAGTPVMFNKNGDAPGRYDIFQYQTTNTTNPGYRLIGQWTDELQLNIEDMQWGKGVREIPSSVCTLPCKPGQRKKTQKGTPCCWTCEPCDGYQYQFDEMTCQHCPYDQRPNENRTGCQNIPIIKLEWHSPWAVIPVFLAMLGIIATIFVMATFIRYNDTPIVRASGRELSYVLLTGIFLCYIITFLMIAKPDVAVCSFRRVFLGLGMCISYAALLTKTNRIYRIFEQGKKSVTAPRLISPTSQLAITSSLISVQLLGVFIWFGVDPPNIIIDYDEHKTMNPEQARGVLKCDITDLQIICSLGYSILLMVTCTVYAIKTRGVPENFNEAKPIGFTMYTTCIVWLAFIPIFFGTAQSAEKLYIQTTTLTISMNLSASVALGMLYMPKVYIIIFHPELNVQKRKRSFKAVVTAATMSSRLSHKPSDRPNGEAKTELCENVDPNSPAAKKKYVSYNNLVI
T2 sequence (P35400 35-915): as above

| Compound | triggering of increases of p44/42 MAPK activities (specificity) [1] | depression of forskolin-mediated luciferase activity (rat mGlu7a receptor) | internalization without a covalent link between IgG and siRNA (rat mGluR7 receptor) |
| --- | --- | --- | --- |
| Cl.Cl.c1ccc(C(NCCNC(c2ccccc2)c2ccccc2)c2ccccc2)cc1 [AMN082, Dibenzhydrylethane-1,2-diamine dihydrochloride] | do not trigger increases | – | – |
| NC(CCP(=O)(O)O)C(=O)O [L-AP4] | do not trigger increases | about 83% | – |
| siRNA: Cy5 labeled siRNA, sense SEQ ID NO: 1 with C6SSC6 linker, antisense SEQ ID NO: 2; tested mixed with IgG (sense {Cy5}-mCmUmUrAmCrGmCmUrGrArGmUrAmCmUmUmCrGrAdTdT[C6SSC6]dT; antisense rUrCrGrArArGmUrArCrUmCrArGrCrGmUrArArGdT*dT) | – | – | only the IgG is internalized |
